# Assay results reported in EPA's ToxRefDB 2.
# What was measured:
# [1] = system: rat; conditions: Sub-acute repeat dose toxicity, fischer, Oral, Gavage/Intubation, dose end: 16 day, group: systemic
# [2] = system: rat; conditions: Acute inhalation toxicity, fischer, Nose-Only, dose end: 28 day, group: systemic, systemic / pathology microscopic / nose / hyperplasia + systemic / pathology microscopic / nose / lesion(s) (nos) + systemic / pathology …
# [3] = system: mouse; conditions: Subchronic oral toxicity in rodents, b6c3f1, Gavage/Intubation, dose end: 13 week, group: systemic
# [4] = system: rat; conditions: Subchronic oral toxicity in rodents, fischer, Gavage/Intubation, dose end: 13 week, group: systemic
# [5] = system: mouse; conditions: Carcinogenicity, b6c3f1, Oral, Gavage/Intubation, dose end: 103 week, group: systemic
# [6] = system: rat; conditions: Carcinogenicity; fischer; Oral; Gavage/Intubation; dose end: 103 week; group: systemic; systemic / pathology microscopic / liver / necrosis
# [7] = system: rat; conditions: Sub-acute repeat dose toxicity; fischer; Oral; Gavage/Intubation; dose end: 28 day; group: systemic; systemic / in life observation / mortality / mortality + systemic / organ weight / kidney / absolute + systemic / organ weight / kidney / …
# [8] = system: mouse; conditions: Sub-acute repeat dose toxicity; b6c3f1; Oral; Gavage/Intubation; dose end: 16 day; group: systemic; systemic / in life observation / mortality / mortality
# [9] = system: rat; conditions: Subchronic oral toxicity in rodents, wistar, Feed, dose end: 3 month, group: systemic, systemic / clinical chemistry / albumin / albumin + systemic / clinical chemistry / calcium / calcium + systemic / clinical chemistry / …
# [10] = system: dog; conditions: Chronic toxicity; beagle; Oral; Feed; dose end: 52 week; group: systemic; systemic / pathology microscopic / liver / hemosiderosis + systemic / pathology microscopic / spleen / hemosiderosis
# [11] = system: rat; conditions: Combined chronic toxicity/carcinogenicity, sprague dawley, Oral, Feed, dose end: 104 week, group: systemic
# [12] = system: mouse; conditions: Combined chronic toxicity/carcinogenicity; other; Oral; Feed; dose end: 104 week; group: systemic; systemic / in life observation / body weight / body weight
# [13] = system: dog; conditions: Chronic toxicity, beagle, Oral, Feed, dose end: 52 week, group: systemic
# [14] = system: rat; conditions: Developmental neurotoxicity range-finding study; wistar; Oral; Gavage/Intubation; dose end: 21 PND; group: cannot be grouped; developmental / offspring survival late / [other] / [other] + systemic / in life observation / clinical signs / tremors
# [15] = system: rat; conditions: Multigenerational reproductive toxicity study, wistar, Oral, Feed, dose end: 2 generation
# [16] = system: rat; conditions: Chronic toxicity, wistar, Oral, Feed, dose end: 728 day, group: systemic
# [17] = system: rat; conditions: Combined chronic toxicity/carcinogenicity; wistar; Oral; Feed; dose end: 24 month; group: systemic; systemic / in life observation / body weight / body weight + systemic / in life observation / body weight / body weight gain + systemic / in…
# [18] = system: rabbit; conditions: Prenatal developmental toxicity study, himalayan, Oral, Gavage/Intubation, dose end: 19 GD
# [19] = system: rat; conditions: Subchronic oral toxicity in rodents, fischer, Feed, dose end: 13 week, group: systemic
# [20] = systemic / in life observation / clinical signs / labored respiration + systemic / in life observation / clinical signs / reduced activity…
# [21] = systemic / organ weight / liver / relative to body weight
# [22] = systemic / in life observation / mortality / mortality + systemic / organ weight / kidney / absolute + systemic / organ weight / kidney / …
# [23] = systemic / pathology microscopic / liver / vacuolization cytoplasmic
# [24] = systemic / pathology microscopic / kidney / carcinoma + systemic / pathology microscopic / stomach / hyperplasia
# [25] = systemic / in life observation / food consumption / food consumption
# [26] = systemic / in life observation / food consumption / food consumption + systemic / in life observation / body weight / body weight
# [27] = systemic / in life observation / clinical signs / salivation
# [28] = systemic / in life observation / clinical signs / salivation + systemic / in life observation / clinical signs / [other] + systemic / in …
# [29] = group: offspring, developmental / developmental landmark / eye opening / eye opening
# [30] = group: offspring, systemic / in life observation / body weight / offspring (pup) weight + systemic / in life observation / body weight / offspring (pup) …
# [31] = group: parental, systemic / in life observation / body weight / body weight + systemic / in life observation / body weight / body weight gain + systemic / …
# [32] = systemic / in life observation / body weight / body weight + systemic / in life observation / body weight / body weight gain + systemic / …
# [33] = group: developmental, developmental / developmental malformation / bone / [other] + developmental / developmental malformation / bone / full supernumerary + …
# [34] = group: maternal, systemic / in life observation / body weight / body weight gain + systemic / in life observation / food consumption / food consumption
# [35] = systemic / organ weight / kidney / nos + systemic / organ weight / liver / nos + systemic / pathology microscopic / liver / hypertrophy
# [36] = systemic / organ weight / kidney / nos + systemic / organ weight / liver / nos + systemic / pathology microscopic / liver / hypertrophy + …
smiles,measurement,setting,value
O=Cc1ccco1 [Furfural],LOAEL,[1]; [20],> 240 mg/kg/day
same,NEL,[1]; [20],60 mg/kg/day
same,NOAEL,[1]; [20],≥ 240 mg/kg/day
same,LEL,[1]; systemic / in life observation / clinical signs / reduced activity,120 mg/kg/day
same,LEL,[2],6 mg/kg/day
same,LOAEL,[2],> 368 mg/kg/day
same,NEL,[2],< 6 mg/kg/day
same,NOAEL,[2],≥ 368 mg/kg/day
same,LEL,[3]; [21],75 mg/kg/day
same,NEL,[3]; [21],< 75 mg/kg/day
same,LOAEL,[3]; systemic / pathology microscopic / liver / inflammation + systemic / pathology microscopic / liver / necrosis,150 mg/kg/day
same,NOAEL,[3]; systemic / pathology microscopic / liver / inflammation + systemic / pathology microscopic / liver / necrosis + systemic / in life …,75 mg/kg/day
same,LOAEL,[4]; [22],> 180 mg/kg/day
same,NOAEL,[4]; [22],≥ 180 mg/kg/day
same,LEL,[4]; [23],11 mg/kg/day
same,NEL,[4]; [23],< 11 mg/kg/day
same,LEL,[5]; [24],50 mg/kg/day
same,NEL,[5]; [24],< 50 mg/kg/day
same,LOAEL,[5]; systemic / pathology microscopic / liver / inflammation + systemic / pathology microscopic / liver / pigmentation,100 mg/kg/day
same,NOAEL,[5]; systemic / pathology microscopic / liver / inflammation + systemic / pathology microscopic / liver / pigmentation + systemic / pathology …,50 mg/kg/day
same,LEL,[6],30 mg/kg/day
same,LOAEL,[6],30 mg/kg/day
same,NEL,[6],< 30 mg/kg/day
same,NOAEL,[6],< 30 mg/kg/day
same,LEL,[7],192 mg/kg/day
same,LOAEL,[7],192 mg/kg/day
same,NEL,[7],96 mg/kg/day
same,NOAEL,[7],96 mg/kg/day
same,LEL,[8],400 mg/kg/day
same,LOAEL,[8],> 400 mg/kg/day
same,NEL,[8],200 mg/kg/day
same,NOAEL,[8],≥ 400 mg/kg/day
C[N+]1(C)CCCCC1.[Cl-] [Mepiquat chloride],LEL,[9],826 mg/kg/day
same,LOAEL,[9],826 mg/kg/day
same,NEL,[9],< 826 mg/kg/day
same,NOAEL,[9],< 826 mg/kg/day
same,LEL,[10],58.4 mg/kg/day
same,LOAEL,[10],> 58.4 mg/kg/day
same,NEL,[10],19.9 mg/kg/day
same,NOAEL,[10],≥ 58.4 mg/kg/day
same,LEL,[11]; [25],186 mg/kg/day
same,LOAEL,[11]; [25],186 mg/kg/day
same,NEL,[11]; [26],62.4 mg/kg/day
same,NOAEL,[11]; [26],62.4 mg/kg/day
same,LEL,[12],169 mg/kg/day
same,LOAEL,[12],> 514 mg/kg/day
same,NEL,[12],48.9 mg/kg/day
same,NOAEL,[12],≥ 514 mg/kg/day
same,LOAEL,[13]; [27],170 mg/kg/day
same,NOAEL,[13]; [27],< 170 mg/kg/day
same,LEL,[13]; [28],170 mg/kg/day
same,NEL,[13]; [28],< 170 mg/kg/day
same,LEL,[14],75 mg/kg/day
same,LOAEL,[14],75 mg/kg/day
same,NEL,[14],< 75 mg/kg/day
same,NOAEL,[14],< 75 mg/kg/day
same,LEL,[15]; [29],48.6 mg/kg/day
same,NEL,[15]; [29],< 48.6 mg/kg/day
same,LOAEL,[15]; [30],574 mg/kg/day
same,NOAEL,[15]; [30],147 mg/kg/day
same,LOAEL,"[15]; group: parental, systemic / in life observation / body weight / body weight + systemic / in life observation / body weight / body weight gain",499 mg/kg/day
same,LEL,[15]; [31],499 mg/kg/day
same,NEL,[15]; [31],153 mg/kg/day
same,NOAEL,[15]; [31],153 mg/kg/day
same,LOAEL,[16]; [32],268 mg/kg/day
same,NEL,[16]; [32],13 mg/kg/day
same,NOAEL,[16]; [32],106 mg/kg/day
same,LEL,[16]; [25],106 mg/kg/day
same,LEL,[17],269 mg/kg/day
same,LOAEL,[17],269 mg/kg/day
same,NEL,[17],105 mg/kg/day
same,NOAEL,[17],105 mg/kg/day
same,LEL,[18]; [33],100 mg/kg/day
same,LOAEL,[18]; [33],100 mg/kg/day
same,NEL,[18]; [33],50 mg/kg/day
same,NOAEL,[18]; [33],50 mg/kg/day
same,LEL,[18]; [34],100 mg/kg/day
same,LOAEL,[18]; [34],100 mg/kg/day
same,NEL,[18]; [34],50 mg/kg/day
same,NOAEL,[18]; [34],50 mg/kg/day
CC(O)CN(CC(C)O)CC(C)O.Nc1c(Cl)c(Cl)nc(C(=O)O)c1Cl (centres undefined) [Picloram triisopropanolamine salt],LEL,[19]; [35],550 mg/kg/day
same,LOAEL,[19]; [35],550 mg/kg/day
same,NEL,[19]; [36],90 mg/kg/day
same,NOAEL,[19]; [36],90 mg/kg/day
